Laboratory results reported in patent US5385829A, “Method of assaying for acyl-L-carnitines and short-chain acyl-carnitines” (priority 1990, dated 1995).

Key:
[1] = system: L-carnitine dehydrogenase; experiment: Substrate specificity of L-carnitine dehydrogenase; type: biochemical; details: L-carnitine dehydrogenase from Alcaligenes sp. No. 981
Protocol: 1 ml of the reaction solution was placed in a small test tube and incubated at 37° C. for 5 mins. and thereto was added 0.02 ml of the […] solution to be examined, to cause the reaction, with agitation. After 10 mins. 2 ml of 0.1N aq. HCl were added thereto to terminate the reaction and the A550 nm of the solution was measured to obtained the absorbance A1.
On the other hand, the same procedures were repeated for a reaction solution in which the L-carnitine was omitted, to obtain the absorbance A0.

[2] = system: L-carnitine dehydrogenase; experiment: Km values and coenzyme reactivity of L-carnitine dehydrogenase; type: biochemical, Alcaligenes sp. No. 981; details: for Km: L-carnitine dehydrogenase, 100 mM tris-HCl buffer pH 9.0
Protocol: The L-carnitine dehydrogenase used in preparing the analysis reagent for determining the amount of L-carnitine, should have reactivity to the substrate, namely, L-carnitine, and may be employed in combination with a coenzyme such as an NAD (preferably NAD or thio-NAD). Such reactivity can be confirmed using the combination of such coenzyme with the substrate. For example, it has been confirmed that, when using L-carnitine as the substrate and thio-NAD as the coenzyme in 100 mM tris-HCl buffer solution (pH 9.0), the L-carnitine dehydrogenase produced from Alcaligenes sp.
Km value for NAD^+ was determined by varying the concentration of the NAD^+ in a reaction solution containing 100 mM tris-HCl buffer solution (pH 9.0). 5 units of diaphorase (a product of Toyo Jozo), 0.025% of NBT (a product of Wako Pure Chemical Ind.), 1% of Tween 80 (a product of Wako Pure Chemical Ind.) and 50 mM L-carnitine, whereby a value of 0.141 mM was obtained.

| Molecule | enzymatic activity relative to the activity when using NAD as the coenzyme ([2]; L-carnitine as substrate, 100 mM tris-HCl pH 9.0) | Km [2] [µM] | Relative Specificity % [1] [%] | Km ([2]; listed as NAD^+) [µM] |
| --- | --- | --- | --- | --- |
| NCCCC[C@H](N)C(=O)O [Lysine] | – | – | 0 | – |
| Glucose | – | – | 0 | – |
| C[N+](C)(C)CC(=O)[O-] [Glycinebetaine] | – | – | 0 | – |
| NC(=O)c1ccc[n+]([C@@H]2O[C@H](COP(=O)([O-])OP(=O)(O)OC[C@H]3O[C@@H](n4cnc5c(N)ncnc54)[C@H](O)[C@@H]3O)[C@@H](O)[C@H]2O)c1 [NAD, nicotinamide adenine dinucleotide] | – | 140 | – | 141 |

Continued, in another order:

| enzymatic activity relative to the activity when using NAD as the coenzyme ([2]; L-carnitine as substrate, 100 mM tris-HCl pH 9.0) | Km [2] [µM] | Molecule | Relative Specificity % [1] [%] | Km ([2]; listed as NAD^+) [µM] |
| --- | --- | --- | --- | --- |
| about 15% | 490 | NC(=S)c1ccc[n+]([C@@H]2O[C@H](COP(=O)([O-])OP(=O)(O)OC[C@H]3O[C@@H](n4cnc5c(N)ncnc54)[C@H](O)[C@@H]3O)[C@@H](O)[C@H]2O)c1 [thio-NAD, thionicotinamide adenine dinucleotide] | – | – |
| – | 9300 | C[N+](C)(C)C[C@H](O)CC(=O)[O-] [L-carnitine] | 100 | – |
